Assay results reported in PubChem BioAssay (NCI).
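Interpolation was linear, between the two tested concentrations surrounding the appropriate level; five concentrations were tested over 48 hours in 96-well plates. Abbreviation: GI50, concentration required for 50% inhibition of growth. TGI: total growth inhibition.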

Tests used:
Experiment in all cases: inhibition of tumour cell growth, NCI panel, 48 h
SK-OV-3 ovarian = system: SK-OV-3 ovarian
BT-549 breast = system: BT-549 breast
OVCAR-3 ovarian = system: OVCAR-3 ovarian
786-0 renal = system: 786-0 renal
KM12 colon = system: KM12 colon
U251 CNS = system: U251 CNS
TK-10 renal = system: TK-10 renal
HCT-15 colon = system: HCT-15 colon
CAKI-1 renal = system: CAKI-1 renal
HCT-116 colon = system: HCT-116 colon
NCI-H226 lung = system: NCI-H226 lung
M14 melanoma = system: M14 melanoma
RPMI-8226 leukemia = system: RPMI-8226 leukemia
SF-268 CNS = system: SF-268 CNS
SNB-19 CNS = system: SNB-19 CNS
COLO 205 colon = system: COLO 205 colon
HL-60(TB) leukemia = system: HL-60(TB) leukemia
K-562 leukemia = system: K-562 leukemia
IGROV1 ovarian = system: IGROV1 ovarian
PC-3 prostate = system: PC-3 prostate
SF-295 CNS = system: SF-295 CNS
A549 NSCLC = system: A549 NSCLC
SK-MEL-28 melanoma = system: SK-MEL-28 melanoma
NCI/ADR-RES ovarian = system: NCI/ADR-RES ovarian
EKVX NSCLC = system: EKVX NSCLC
MDA-MB-231 breast = system: MDA-MB-231 breast
SK-MEL-2 melanoma = system: SK-MEL-2 melanoma
HOP-62 NSCLC = system: HOP-62 NSCLC
UACC-257 melanoma = system: UACC-257 melanoma
SK-MEL-5 melanoma = system: SK-MEL-5 melanoma
DU-145 prostate = system: DU-145 prostate
MOLT-4 leukemia = system: MOLT-4 leukemia
SNB-75 CNS = system: SNB-75 CNS
SR leukemia = system: SR leukemia
UO-31 renal = system: UO-31 renal
T-47D breast = system: T-47D breast
UACC-62 melanoma = system: UACC-62 melanoma
RXF 393 renal = system: RXF 393 renal
HS 578T breast = system: HS 578T breast
SN12C renal = system: SN12C renal
NCI-H522 lung = system: NCI-H522 lung
OVCAR-4 ovarian = system: OVCAR-4 ovarian
NCI-H460 lung = system: NCI-H460 lung
SW-620 colon = system: SW-620 colon
OVCAR-8 ovarian = system: OVCAR-8 ovarian
MDA-MB-435 = system: MDA-MB-435
LOX IMVI melanoma = system: LOX IMVI melanoma
SF-539 CNS = system: SF-539 CNS
OVCAR-5 ovarian = system: OVCAR-5 ovarian

`CC1OC(OC2C(O)C(OCCc3ccc(O)c(O)c3)OC(CO)C2OC(=O)/C=C/c2ccc(O)c(O)c2)C(O)C(O)C1OC1OCC(O)(CO)C1O` (stereo not drawn) showed a GI50 (SK-OV-3 ovarian) of over 100 µM, a TGI (SK-OV-3 ovarian) of over 100 µM and a GI50 (BT-549 breast) of 19.8 µM. The TGI (BT-549 breast) was 42.2 µM, the GI50 (OVCAR-3 ovarian) was 27.4 µM and the TGI (OVCAR-3 ovarian) was over 100 µM. For the same compound, the GI50 (786-0 renal) was 44.6 µM, the TGI (786-0 renal) was over 100 µM and the GI50 (KM12 colon) was over 100 µM. For the same compound, the TGI (KM12 colon) was over 100 µM, the GI50 (U251 CNS) was over 100 µM and the TGI (U251 CNS) was over 100 µM. For the same compound, the GI50 (TK-10 renal) was over 100 µM, the TGI (TK-10 renal) was over 100 µM and the GI50 (HCT-15 colon) was over 100 µM. The TGI (HCT-15 colon) was over 100 µM, the GI50 (CAKI-1 renal) was 7.71 µM and the TGI (CAKI-1 renal) was over 100 µM. For the same compound, the GI50 (HCT-116 colon) was 20.3 µM, the TGI (HCT-116 colon) was 47.7 µM and the GI50 (NCI-H226 lung) was over 100 µM. It also gave a TGI (NCI-H226 lung) of over 100 µM, a GI50 (M14 melanoma) of over 100 µM and a TGI (M14 melanoma) of over 100 µM. For the same compound, the GI50 (RPMI-8226 leukemia) was 38.5 µM, the TGI (RPMI-8226 leukemia) was over 100 µM and the GI50 (SF-268 CNS) was 0.0141 µM. For the same compound, the TGI (SF-268 CNS) was 23.7 µM, the GI50 (SNB-19 CNS) was over 100 µM and the TGI (SNB-19 CNS) was over 100 µM. For the same compound, the GI50 (COLO 205 colon) was over 100 µM, the TGI (COLO 205 colon) was over 100 µM and the GI50 (HL-60(TB) leukemia) was 69.8 µM. It also gave a TGI (HL-60(TB) leukemia) of over 100 µM, a GI50 (K-562 leukemia) of 39.3 µM and a TGI (K-562 leukemia) of over 100 µM. It also gave a GI50 (IGROV1 ovarian) of over 100 µM, a TGI (IGROV1 ovarian) of over 100 µM and a GI50 (PC-3 prostate) of 0.85 µM. The TGI (PC-3 prostate) was over 100 µM, the GI50 (SF-295 CNS) was over 100 µM and the TGI (SF-295 CNS) was over 100 µM. It also gave a GI50 (A549 NSCLC) of over 100 µM, a TGI (A549 NSCLC) of over 100 µM and a GI50 (SK-MEL-28 melanoma) of over 100 µM. The TGI (SK-MEL-28 melanoma) was over 100 µM, the GI50 (NCI/ADR-RES ovarian) was 89 µM and the TGI (NCI/ADR-RES ovarian) was over 100 µM. For the same compound, the GI50 (EKVX NSCLC) was over 100 µM, the TGI (EKVX NSCLC) was over 100 µM and the GI50 (MDA-MB-231 breast) was over 100 µM. For the same compound, the TGI (MDA-MB-231 breast) was over 100 µM, the GI50 (SK-MEL-2 melanoma) was over 100 µM and the TGI (SK-MEL-2 melanoma) was over 100 µM. For the same compound, the GI50 (HOP-62 NSCLC) was over 100 µM, the TGI (HOP-62 NSCLC) was over 100 µM and the GI50 (UACC-257 melanoma) was over 100 µM. The TGI (UACC-257 melanoma) was over 100 µM, the GI50 (SK-MEL-5 melanoma) was over 100 µM and the TGI (SK-MEL-5 melanoma) was over 100 µM. For the same compound, the GI50 (DU-145 prostate) was 30.1 µM, the TGI (DU-145 prostate) was over 100 µM and the GI50 (MOLT-4 leukemia) was 55.6 µM. The TGI (MOLT-4 leukemia) was over 100 µM, the GI50 (SNB-75 CNS) was over 100 µM and the TGI (SNB-75 CNS) was over 100 µM. For the same compound, the GI50 (SR leukemia) was 52.1 µM, the TGI (SR leukemia) was over 100 µM and the GI50 (UO-31 renal) was over 100 µM. The TGI (UO-31 renal) was over 100 µM, the GI50 (T-47D breast) was over 100 µM and the TGI (T-47D breast) was over 100 µM. For the same compound, the GI50 (UACC-62 melanoma) was over 100 µM, the TGI (UACC-62 melanoma) was over 100 µM and the GI50 (RXF 393 renal) was over 100 µM. The TGI (RXF 393 renal) was over 100 µM, the GI50 (HS 578T breast) was over 100 µM and the TGI (HS 578T breast) was over 100 µM. For the same compound, the GI50 (SN12C renal) was over 100 µM, the TGI (SN12C renal) was over 100 µM and the GI50 (NCI-H522 lung) was over 100 µM. For the same compound, the TGI (NCI-H522 lung) was over 100 µM, the GI50 (OVCAR-4 ovarian) was over 100 µM and the TGI (OVCAR-4 ovarian) was over 100 µM. The GI50 (NCI-H460 lung) was 96.9 µM, the TGI (NCI-H460 lung) was over 100 µM and the GI50 (SW-620 colon) was 25 µM. The TGI (SW-620 colon) was 57.9 µM, the GI50 (OVCAR-8 ovarian) was over 100 µM and the TGI (OVCAR-8 ovarian) was over 100 µM. For the same compound, the GI50 (MDA-MB-435) was 16.1 µM, the TGI (MDA-MB-435) was 35.3 µM and the GI50 (LOX IMVI melanoma) was 17.2 µM. It also gave a TGI (LOX IMVI melanoma) of 35.3 µM, a GI50 (SF-539 CNS) of 24.6 µM and a TGI (SF-539 CNS) of 79 µM. For the same compound, the GI50 (OVCAR-5 ovarian) was over 100 µM and the TGI (OVCAR-5 ovarian) was over 100 µM.
